Source: paper PMC11249646, “Small-Molecule Disruptors of the Interaction between Calcium- and Integrin-Binding Protein 1 and Integrin αIIbβ3 as Novel Antiplatelet Agents” (ACS Pharmacology & Translational Science, 2024)

molecular target: T1, CIB1 and αIIb interaction (CIB1-GST : F-αIIb peptide) (Homo sapiens, UniProt Q99828); experiment: FP assay, 1536-well qHTS format (primary and confirmatory screen); format: binding; conditions: Table S3, confirmatory screen, YES/NO call
T1 construct: made in house; host or cells: BL-21 plus RIL cells (E. coli)
T1 sequence (Q99828 1-191): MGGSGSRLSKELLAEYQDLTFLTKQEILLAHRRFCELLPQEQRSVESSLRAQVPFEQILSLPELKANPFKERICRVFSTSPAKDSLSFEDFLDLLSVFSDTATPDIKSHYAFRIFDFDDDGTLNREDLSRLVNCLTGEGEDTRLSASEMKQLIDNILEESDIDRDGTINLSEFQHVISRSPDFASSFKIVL

SMILES	Confirm? (confirmatory screen)
O=C(c1cc(O)c(O)c(O)c1)c1ccc(O)c(O)c1O [NCGC00249050-02]	YES
O=C(O)C(F)(F)F.O=S(=O)(Nc1nccs1)c1ccc(Nc2nc(-c3ccccc3)cs2)cc1 [NCGC00262380-01]	YES

same assay, conditions: Table S3, confirmatory screen, qHTS curve class; a negative sign marks inhibitory curves

SMILES	Curve Class (confirmatory screen)
CN(C)CCCCCCNC(=O)c1cccc(-c2cc(O)c3ncccc3c2)c1.O=C(O)C(F)(F)F [NCGC00247743-01]	4
O=C(Nc1nc(-c2ccccc2)cs1)c1ccccc1NS(=O)(=O)c1ccc(F)cc1.O=C(O)C(F)(F)F [NCGC00247844-02]	3
Cc1c2c(=O)n(-c3ccccc3)[nH]c2cc(=O)n1-c1cccnc1.O=C(O)C(F)(F)F [NCGC00248472-01]	4
O=C(c1cc(O)c(O)c(O)c1)c1ccc(O)c(O)c1O [NCGC00249050-02]	-2.1
O=C(Nc1ccc(S(=O)(=O)N2CCOCC2)cc1)c1cc(Cl)ccc1NS(=O)(=O)c1ccc(Cl)s1.O=C(O)C(F)(F)F [NCGC00249417-01]	4
CC(C)(O)CCc1ccc(OCc2cc(-c3cccc(OC(F)F)c3)c3ncccc3c2)cc1 [NCGC00249759-02]	4
Cc1ccc([N+](=O)[O-])[c]2c1[O][Hg]2 [NCGC00249897-01]	4
COC(=O)c1cc(Cl)ccc1NS(=O)(=O)C(F)(F)F [NCGC00249937-01]	4
O=C(O)C(F)(F)F.O=S(=O)(Nc1nccs1)c1ccc(Nc2nc(-c3ccccc3)cs2)cc1 [NCGC00262380-01]	-2.2

same assay, conditions: Table S3, confirmatory screen; negative = inhibition

SMILES	Efficacy (%) (confirmatory screen)
CN(C)CCCCCCNC(=O)c1cccc(-c2cc(O)c3ncccc3c2)c1.O=C(O)C(F)(F)F [NCGC00247743-01]	-35
O=C(Nc1nc(-c2ccccc2)cs1)c1ccccc1NS(=O)(=O)c1ccc(F)cc1.O=C(O)C(F)(F)F [NCGC00247844-02]	48
Cc1c2c(=O)n(-c3ccccc3)[nH]c2cc(=O)n1-c1cccnc1.O=C(O)C(F)(F)F [NCGC00248472-01]	-23
O=C(c1cc(O)c(O)c(O)c1)c1ccc(O)c(O)c1O [NCGC00249050-02]	-86
O=C(Nc1ccc(S(=O)(=O)N2CCOCC2)cc1)c1cc(Cl)ccc1NS(=O)(=O)c1ccc(Cl)s1.O=C(O)C(F)(F)F [NCGC00249417-01]	-31
CC(C)(O)CCc1ccc(OCc2cc(-c3cccc(OC(F)F)c3)c3ncccc3c2)cc1 [NCGC00249759-02]	-25
Cc1ccc([N+](=O)[O-])[c]2c1[O][Hg]2 [NCGC00249897-01]	0
COC(=O)c1cc(Cl)ccc1NS(=O)(=O)C(F)(F)F [NCGC00249937-01]	12
O=C(O)C(F)(F)F.O=S(=O)(Nc1nccs1)c1ccc(Nc2nc(-c3ccccc3)cs2)cc1 [NCGC00262380-01]	-80

same assay, conditions: Table S3, confirmatory screen; read-out: IC50 [μM] (confirmatory screen)

IC50 [µM]	SMILES
25.1	O=C(c1cc(O)c(O)c(O)c1)c1ccc(O)c(O)c1O [NCGC00249050-02]

same assay, conditions: qHTS FP screen hits, Table S2; negative = inhibition

SMILES	Efficacy (%)
Cc1c2c(=O)n(-c3ccccc3)[nH]c2cc(=O)n1-c1cccnc1.O=C(O)C(F)(F)F [NCGC00248472-01]	-31

same assay, conditions: qHTS FP screen hits, Table S2; read-out: IC50

SMILES	IC50 [µM]
Cc1c2c(=O)n(-c3ccccc3)[nH]c2cc(=O)n1-c1cccnc1.O=C(O)C(F)(F)F [NCGC00248472-01]	39.8

same assay, conditions: qHTS primary screen hits, Table S2; negative = inhibition

SMILES	Efficacy (%)
CN(C)CCCCCCNC(=O)c1cccc(-c2cc(O)c3ncccc3c2)c1.O=C(O)C(F)(F)F [NCGC00247743-01]	-33
O=C(Nc1nc(-c2ccccc2)cs1)c1ccccc1NS(=O)(=O)c1ccc(F)cc1.O=C(O)C(F)(F)F [NCGC00247844-02]	-24
O=C(c1cc(O)c(O)c(O)c1)c1ccc(O)c(O)c1O [NCGC00249050-02]	-42
CC(C)(O)CCc1ccc(OCc2cc(-c3cccc(OC(F)F)c3)c3ncccc3c2)cc1 [NCGC00249759-02]	-59
Cc1ccc([N+](=O)[O-])[c]2c1[O][Hg]2 [NCGC00249897-01]	-49
COC(=O)c1cc(Cl)ccc1NS(=O)(=O)C(F)(F)F [NCGC00249937-01]	-64
O=C(O)C(F)(F)F.O=S(=O)(Nc1nccs1)c1ccc(Nc2nc(-c3ccccc3)cs2)cc1 [NCGC00262380-01]	-69

same assay, conditions: qHTS primary screen hits, Table S2; negative sign = inhibitory curve; several classes where COUNT > 1

SMILES	Curve Class
CN(C)CCCCCCNC(=O)c1cccc(-c2cc(O)c3ncccc3c2)c1.O=C(O)C(F)(F)F [NCGC00247743-01]	-1.2
O=C(Nc1nc(-c2ccccc2)cs1)c1ccccc1NS(=O)(=O)c1ccc(F)cc1.O=C(O)C(F)(F)F [NCGC00247844-02]	-1.4
O=C(c1cc(O)c(O)c(O)c1)c1ccc(O)c(O)c1O [NCGC00249050-02]	-2.2
CC(C)(O)CCc1ccc(OCc2cc(-c3cccc(OC(F)F)c3)c3ncccc3c2)cc1 [NCGC00249759-02]	-2.2
Cc1ccc([N+](=O)[O-])[c]2c1[O][Hg]2 [NCGC00249897-01]	-1.4
COC(=O)c1cc(Cl)ccc1NS(=O)(=O)C(F)(F)F [NCGC00249937-01]	-2.2
O=C(O)C(F)(F)F.O=S(=O)(Nc1nccs1)c1ccc(Nc2nc(-c3ccccc3)cs2)cc1 [NCGC00262380-01]	-2.2

same assay, conditions: qHTS primary screen hits, Table S2; read-out: IC50

SMILES	IC50 [µM]
CN(C)CCCCCCNC(=O)c1cccc(-c2cc(O)c3ncccc3c2)c1.O=C(O)C(F)(F)F [NCGC00247743-01]	22.4
O=C(Nc1nc(-c2ccccc2)cs1)c1ccccc1NS(=O)(=O)c1ccc(F)cc1.O=C(O)C(F)(F)F [NCGC00247844-02]	17.8
O=C(c1cc(O)c(O)c(O)c1)c1ccc(O)c(O)c1O [NCGC00249050-02]	39.8
CC(C)(O)CCc1ccc(OCc2cc(-c3cccc(OC(F)F)c3)c3ncccc3c2)cc1 [NCGC00249759-02]	24.1
Cc1ccc([N+](=O)[O-])[c]2c1[O][Hg]2 [NCGC00249897-01]	3.5
COC(=O)c1cc(Cl)ccc1NS(=O)(=O)C(F)(F)F [NCGC00249937-01]	44.7
O=C(O)C(F)(F)F.O=S(=O)(Nc1nccs1)c1ccc(Nc2nc(-c3ccccc3)cs2)cc1 [NCGC00262380-01]	50.1

molecular target: T2, GST-CIB1 : F-scrambled peptide (Homo sapiens, UniProt Q99828); experiment: FP scrambled-peptide counter screen, 1536-well format; format: binding; conditions: Table S3, counterscreen, YES/NO call
T2 construct: made in house; host or cells: BL-21 plus RIL cells (E. coli)
T2 sequence (Q99828 1-191): T1 sequence (Q99828 1-191)

SMILES	Confirm? (counterscreen)
CN(C)CCCCCCNC(=O)c1cccc(-c2cc(O)c3ncccc3c2)c1.O=C(O)C(F)(F)F [NCGC00247743-01]	YES
Cc1c2c(=O)n(-c3ccccc3)[nH]c2cc(=O)n1-c1cccnc1.O=C(O)C(F)(F)F [NCGC00248472-01]	YES

same assay, conditions: Table S3, counterscreen, qHTS curve class; a negative sign marks inhibitory curves

SMILES	Curve Class (counterscreen)
CN(C)CCCCCCNC(=O)c1cccc(-c2cc(O)c3ncccc3c2)c1.O=C(O)C(F)(F)F [NCGC00247743-01]	-2.4
Cc1c2c(=O)n(-c3ccccc3)[nH]c2cc(=O)n1-c1cccnc1.O=C(O)C(F)(F)F [NCGC00248472-01]	-2.2
O=C(c1cc(O)c(O)c(O)c1)c1ccc(O)c(O)c1O [NCGC00249050-02]	-1.1
CC(C)(O)CCc1ccc(OCc2cc(-c3cccc(OC(F)F)c3)c3ncccc3c2)cc1 [NCGC00249759-02]	4
COC(=O)c1cc(Cl)ccc1NS(=O)(=O)C(F)(F)F [NCGC00249937-01]	4
O=C(O)C(F)(F)F.O=S(=O)(Nc1nccs1)c1ccc(Nc2nc(-c3ccccc3)cs2)cc1 [NCGC00262380-01]	-2.1

same assay, conditions: Table S3, counterscreen; negative = inhibition

SMILES	Efficacy (%) (counterscreen)
CN(C)CCCCCCNC(=O)c1cccc(-c2cc(O)c3ncccc3c2)c1.O=C(O)C(F)(F)F [NCGC00247743-01]	-55
O=C(Nc1nc(-c2ccccc2)cs1)c1ccccc1NS(=O)(=O)c1ccc(F)cc1.O=C(O)C(F)(F)F [NCGC00247844-02]	102
Cc1c2c(=O)n(-c3ccccc3)[nH]c2cc(=O)n1-c1cccnc1.O=C(O)C(F)(F)F [NCGC00248472-01]	-60
O=C(c1cc(O)c(O)c(O)c1)c1ccc(O)c(O)c1O [NCGC00249050-02]	-99
O=C(Nc1ccc(S(=O)(=O)N2CCOCC2)cc1)c1cc(Cl)ccc1NS(=O)(=O)c1ccc(Cl)s1.O=C(O)C(F)(F)F [NCGC00249417-01]	163
CC(C)(O)CCc1ccc(OCc2cc(-c3cccc(OC(F)F)c3)c3ncccc3c2)cc1 [NCGC00249759-02]	-28
Cc1ccc([N+](=O)[O-])[c]2c1[O][Hg]2 [NCGC00249897-01]	111
COC(=O)c1cc(Cl)ccc1NS(=O)(=O)C(F)(F)F [NCGC00249937-01]	-16
O=C(O)C(F)(F)F.O=S(=O)(Nc1nccs1)c1ccc(Nc2nc(-c3ccccc3)cs2)cc1 [NCGC00262380-01]	-81

same assay, conditions: Table S3, counterscreen; read-out: IC50 [μM] (counterscreen)

SMILES	IC50 [µM]
CN(C)CCCCCCNC(=O)c1cccc(-c2cc(O)c3ncccc3c2)c1.O=C(O)C(F)(F)F [NCGC00247743-01]	44.7
O=C(Nc1nc(-c2ccccc2)cs1)c1ccccc1NS(=O)(=O)c1ccc(F)cc1.O=C(O)C(F)(F)F [NCGC00247844-02]	50.1
Cc1c2c(=O)n(-c3ccccc3)[nH]c2cc(=O)n1-c1cccnc1.O=C(O)C(F)(F)F [NCGC00248472-01]	39.8
O=C(c1cc(O)c(O)c(O)c1)c1ccc(O)c(O)c1O [NCGC00249050-02]	25.1
O=C(Nc1ccc(S(=O)(=O)N2CCOCC2)cc1)c1cc(Cl)ccc1NS(=O)(=O)c1ccc(Cl)s1.O=C(O)C(F)(F)F [NCGC00249417-01]	79.4
O=C(O)C(F)(F)F.O=S(=O)(Nc1nccs1)c1ccc(Nc2nc(-c3ccccc3)cs2)cc1 [NCGC00262380-01]	50.1
